In US11542264B2, “Heteroaromatic NMDA receptor modulators and uses thereof” (Cadent Therapeutics, Inc., priority 2018, dated 2023):
In brackets after ≈: the same amount, converted by molar mass. Entries after “also recorded” stand apart in the source; their conditions may differ.

What was measured:
[1] = target: T1, hNR2C (Homo sapiens, UniProt Q14957); assay: Oocyte 2EVC NR2C PAM activity; format: cell-based
T1 construct: expressed in transfected cells
Text: (§1) EC50 refers to the concentration of a compound that gives half-maximal response.

[2] = target: T2, hNR2D (Homo sapiens, UniProt O15399); assay: Oocyte 2EVC NR2D PAM activity; format: cell-based
T2 construct: expressed in transfected cells
T2 sequence (O15399 28-1336, other chains not shown): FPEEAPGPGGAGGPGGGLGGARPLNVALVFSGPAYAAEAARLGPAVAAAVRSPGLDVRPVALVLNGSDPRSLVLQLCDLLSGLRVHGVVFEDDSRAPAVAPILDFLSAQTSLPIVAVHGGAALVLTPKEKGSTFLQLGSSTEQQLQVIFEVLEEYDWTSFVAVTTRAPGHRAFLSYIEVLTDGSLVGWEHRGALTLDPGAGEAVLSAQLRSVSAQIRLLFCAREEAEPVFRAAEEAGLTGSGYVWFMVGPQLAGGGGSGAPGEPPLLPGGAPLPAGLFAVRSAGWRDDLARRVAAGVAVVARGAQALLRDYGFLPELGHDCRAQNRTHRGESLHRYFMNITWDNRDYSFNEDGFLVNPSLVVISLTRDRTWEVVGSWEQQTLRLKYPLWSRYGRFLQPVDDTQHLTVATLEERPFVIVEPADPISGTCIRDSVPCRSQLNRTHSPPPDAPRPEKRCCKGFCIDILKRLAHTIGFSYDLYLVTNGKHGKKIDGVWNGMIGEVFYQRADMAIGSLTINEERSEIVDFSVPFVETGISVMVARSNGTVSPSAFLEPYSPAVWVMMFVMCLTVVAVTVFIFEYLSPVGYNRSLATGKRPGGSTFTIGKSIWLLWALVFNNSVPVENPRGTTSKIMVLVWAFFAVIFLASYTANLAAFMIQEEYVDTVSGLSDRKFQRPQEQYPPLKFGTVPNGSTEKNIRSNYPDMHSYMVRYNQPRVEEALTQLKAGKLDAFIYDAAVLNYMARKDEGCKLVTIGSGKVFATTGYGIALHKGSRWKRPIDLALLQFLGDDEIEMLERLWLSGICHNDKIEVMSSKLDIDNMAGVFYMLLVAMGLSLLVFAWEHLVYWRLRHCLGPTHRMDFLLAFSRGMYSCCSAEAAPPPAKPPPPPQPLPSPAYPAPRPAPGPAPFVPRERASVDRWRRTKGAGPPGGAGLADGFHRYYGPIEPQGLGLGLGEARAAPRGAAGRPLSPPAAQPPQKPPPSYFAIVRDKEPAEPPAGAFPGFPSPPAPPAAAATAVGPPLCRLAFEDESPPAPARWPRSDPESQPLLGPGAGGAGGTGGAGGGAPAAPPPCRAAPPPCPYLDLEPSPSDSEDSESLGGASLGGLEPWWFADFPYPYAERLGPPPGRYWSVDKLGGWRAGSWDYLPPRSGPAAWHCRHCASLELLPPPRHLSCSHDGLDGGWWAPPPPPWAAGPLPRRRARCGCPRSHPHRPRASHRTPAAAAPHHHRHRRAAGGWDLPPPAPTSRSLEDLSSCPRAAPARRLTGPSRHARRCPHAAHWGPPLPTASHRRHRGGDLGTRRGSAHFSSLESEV
Text: as §1

[3] = target: T3, hNR2D (Homo sapiens, UniProt O15399+Q05586); assay: Oocyte 2EVC NR2D PAM activity; format: cell-based; conditions: oocytes expressing hNR2D, 10 μM glutamate and 10 μM glycine
T3 construct: expressed in transfected cells
T3 sequence (O15399 28-1336, other chains not shown): as above
Text: as §1

[4] = target: T4, hNR2B (Homo sapiens, UniProt Q05586+Q13224); assay: Oocyte 2EVC NR2B PAM activity; format: cell-based; conditions: oocytes expressing hNR2B, 5 μM glutamate and 3 μM glycine; read-out: Oocyte 2EVC NR2B PAM: Avg EC50
T4 construct: expressed in transfected cells
Text: as §1

[5] = target: T5, hNR2B (Homo sapiens, UniProt Q13224); assay: Oocyte 2EVC NR2B PAM activity; format: cell-based
T5 construct: expressed in transfected cells
T5 sequence (Q13224 27-1484, other chains not shown): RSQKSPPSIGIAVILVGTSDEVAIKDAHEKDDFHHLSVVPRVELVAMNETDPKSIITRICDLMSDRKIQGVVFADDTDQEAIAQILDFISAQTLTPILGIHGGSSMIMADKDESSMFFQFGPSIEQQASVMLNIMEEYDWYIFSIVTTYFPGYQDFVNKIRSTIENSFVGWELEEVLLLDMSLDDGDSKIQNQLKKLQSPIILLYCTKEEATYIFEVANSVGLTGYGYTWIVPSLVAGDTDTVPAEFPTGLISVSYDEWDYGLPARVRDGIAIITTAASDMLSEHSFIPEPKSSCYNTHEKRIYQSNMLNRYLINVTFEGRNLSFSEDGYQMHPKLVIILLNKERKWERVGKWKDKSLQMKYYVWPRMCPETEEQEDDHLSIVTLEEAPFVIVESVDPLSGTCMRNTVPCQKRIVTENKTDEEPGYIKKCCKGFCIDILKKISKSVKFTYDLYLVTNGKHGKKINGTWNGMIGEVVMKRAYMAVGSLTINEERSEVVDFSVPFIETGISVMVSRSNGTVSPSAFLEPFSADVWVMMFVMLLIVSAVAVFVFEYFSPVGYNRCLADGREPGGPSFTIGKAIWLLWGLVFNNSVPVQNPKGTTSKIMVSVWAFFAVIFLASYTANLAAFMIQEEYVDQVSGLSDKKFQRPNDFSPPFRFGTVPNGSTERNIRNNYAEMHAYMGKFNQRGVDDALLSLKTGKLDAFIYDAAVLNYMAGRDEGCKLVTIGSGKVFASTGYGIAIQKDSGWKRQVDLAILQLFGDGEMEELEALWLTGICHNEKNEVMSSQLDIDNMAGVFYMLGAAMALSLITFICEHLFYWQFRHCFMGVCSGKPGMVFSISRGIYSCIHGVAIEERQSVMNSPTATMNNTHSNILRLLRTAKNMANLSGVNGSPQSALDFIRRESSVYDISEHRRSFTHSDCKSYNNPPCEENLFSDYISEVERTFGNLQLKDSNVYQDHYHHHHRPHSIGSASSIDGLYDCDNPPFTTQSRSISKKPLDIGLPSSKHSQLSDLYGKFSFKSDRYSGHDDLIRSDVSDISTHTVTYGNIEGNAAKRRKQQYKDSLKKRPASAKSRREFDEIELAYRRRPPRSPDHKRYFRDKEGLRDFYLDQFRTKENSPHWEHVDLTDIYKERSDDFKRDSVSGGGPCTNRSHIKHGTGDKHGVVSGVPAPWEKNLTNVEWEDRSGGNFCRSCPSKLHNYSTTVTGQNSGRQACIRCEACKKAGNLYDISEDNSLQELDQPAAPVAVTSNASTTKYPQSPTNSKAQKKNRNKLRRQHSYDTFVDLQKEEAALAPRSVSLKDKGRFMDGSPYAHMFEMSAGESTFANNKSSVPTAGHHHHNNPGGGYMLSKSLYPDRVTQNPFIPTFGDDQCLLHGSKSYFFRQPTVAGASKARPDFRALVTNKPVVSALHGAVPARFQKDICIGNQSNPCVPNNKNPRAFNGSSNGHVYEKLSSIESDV
Text: as §1

[6] = Aqueous solubility, shake-flask method; format: physicochemical; conditions: phosphate buffer saline, pH 7.4, aqueous buffer, kinetic from dmso stock, pH 7.4, shake-flask, HPLC-UV
Description: The aqueous solubility of the test compound was determined in phosphate buffer saline, pH 7.4, measured by shake-flask method. In this assay, DMSO stock solution of test compound was added to buffer followed by equilibration (shaking), filtration, and determination of soluble amount by HPLC-UV. […] Other imidazopyrazinone comparators from WO 2017/100591 are provided for reference. All comparator analogs are active and potency data is available in WO 2017/100591. This improvement is advantageous because improved aqueous solubility, in one aspect, is anticipated to provide enhanced in vivo performance in humans.

[7] = tested on: MDR1-transfected MDCK cells; assay: MDCK permeability and efflux assay; format: in vitro ADME
Text: (§2) Monolayer systems consist of a tight cell layer grown on a porous support to separate two fluid compartments. They are widely regarded as the most sophisticated in vitro tools for medium to high throughput modeling of important pharmacokinetic barriers, such as intestinal epithelium, blood-brain barrier, etc. (J. Pharm Sci. 2012 April; 101(4): 1337-1354). Two systems that are applied widely in monolayer studies are the human colon carcinoma cell line Caco-2 and MDR1-transfected MDCKII and LLC-PK1 cells. In monolayer assays, the flux of a compound through the monolayer of cells is measured. The unidirectional flux of the compound of interest is determined by applying it to either the apical or to the basolateral side of the cell layer and monitoring the time resolved redistribution of it between the two compartments. The vectorial transport ratio (often referred to as Efflux Ratio) is determined by applying bidirectional measurements [apical-to-basolateral (A-B) and basolateral-to-apical (B-A)]. […] In the absence of such transport processes this ratio is approximately 1.

[8] = tested on: MDR1; assay: MDCK permeability and efflux assay; format: in vitro ADME; conditions: dog, MDR1-transfected MDCK cells
Text: as §2

[9] = Human liver microsome stability; format: in vitro ADME
Text: (§3) The liver is the most important site of drug metabolism in the body. Approximately 60% of marketed compounds are cleared by hepatic CYP-mediated metabolism (McGinnity, D. F.; Soars, M. G.; Urbanowicz, R. A. and Riley, R. J.; Drug Metab. Disp. 32, 1247, (2004)). Liver microsomes are subcellular fractions which contain membrane bound drug metabolizing enzymes. Microsomes can be used to determine the in vitro intrinsic clearance of a compound. The use of species-specific microsomes can be used to enable an understanding of interspecies differences.

[10] = Rat liver microsome stability; format: in vitro ADME
Text: as §3

[11] = Rat IV pharmacokinetic study, in vivo clearance
Text: Rat microsomal stability data is provided as well. These improvements in in vitro and in vivo clearance are advantageous because reduced clearance, in one aspect, is anticipated to provide enhanced in vivo performance in humans.

[12] = tested on: impairment of MMN by MK-801; assay: Mismatch negativity (MMN) efficacy model; conditions: rat, 60 mg/kg BID, MK-801 0.2 mg/kg IP
Description: Rats implanted with frontal EEG electrodes were presented with different audio stimuli comprising an auditory oddball “flip-flop” protocol. Briefly, 1,000 standard tones of 6.0 kHz were delivered at 90% probability, and 100 deviant tones of 8.0 kHz were delivered at 10% probability in pseudo-random order (the flip sequence), and then this sequence was then repeated with the 8 kHz tone as the standard, and the 6 kHz tone as the deviant (the flop sequence). MMN is calculated as a difference potential obtained by subtracting the averaged 8 kHz standard tone response (flop) from the averaged 8 kHz deviance tone response (flip) at each 1 ms time point over the EEG recording epochs from 50 ms prior to 150 ms after the onset of these 50 ms auditory tones.
Test sessions were comprised of three 20-minute flip-flop blocks.

[13] = tested on: PCP-induced cognitive impairment; assay: Rat Novel Object Recognition (NOR) test, PCP-induced cognitive impairment; conditions: oral
Description: Rats were treated twice daily for 7 days with either saline vehicle (control group) or PCP (5 mg/kg, intraperitoneal). Following a 14-day washout period of no treatment, rats were tested in the NOR paradigm. Briefly, testing involves two sessions (T1 and T2), each lasting 3 minutes, 1 hour apart. […] In T1, rats are placed in a test arena with two identical objects and allowed to freely explore while their time spent exploring each object is recorded. In T2, rats are returned to the test arena where one of the objects remains the same and the other has been replaced with a novel object. The time spent exploring the novel object versus the time spent exploring the familiar object are recorded and compared to T1 object exploration times.

[14] = 10 μM glutamate and 10 μM glycine
[15] = 100% potentiation = doubling of current induced by glutamate/glycine

T1 sequence (Q14957 20-1233, other chains not shown): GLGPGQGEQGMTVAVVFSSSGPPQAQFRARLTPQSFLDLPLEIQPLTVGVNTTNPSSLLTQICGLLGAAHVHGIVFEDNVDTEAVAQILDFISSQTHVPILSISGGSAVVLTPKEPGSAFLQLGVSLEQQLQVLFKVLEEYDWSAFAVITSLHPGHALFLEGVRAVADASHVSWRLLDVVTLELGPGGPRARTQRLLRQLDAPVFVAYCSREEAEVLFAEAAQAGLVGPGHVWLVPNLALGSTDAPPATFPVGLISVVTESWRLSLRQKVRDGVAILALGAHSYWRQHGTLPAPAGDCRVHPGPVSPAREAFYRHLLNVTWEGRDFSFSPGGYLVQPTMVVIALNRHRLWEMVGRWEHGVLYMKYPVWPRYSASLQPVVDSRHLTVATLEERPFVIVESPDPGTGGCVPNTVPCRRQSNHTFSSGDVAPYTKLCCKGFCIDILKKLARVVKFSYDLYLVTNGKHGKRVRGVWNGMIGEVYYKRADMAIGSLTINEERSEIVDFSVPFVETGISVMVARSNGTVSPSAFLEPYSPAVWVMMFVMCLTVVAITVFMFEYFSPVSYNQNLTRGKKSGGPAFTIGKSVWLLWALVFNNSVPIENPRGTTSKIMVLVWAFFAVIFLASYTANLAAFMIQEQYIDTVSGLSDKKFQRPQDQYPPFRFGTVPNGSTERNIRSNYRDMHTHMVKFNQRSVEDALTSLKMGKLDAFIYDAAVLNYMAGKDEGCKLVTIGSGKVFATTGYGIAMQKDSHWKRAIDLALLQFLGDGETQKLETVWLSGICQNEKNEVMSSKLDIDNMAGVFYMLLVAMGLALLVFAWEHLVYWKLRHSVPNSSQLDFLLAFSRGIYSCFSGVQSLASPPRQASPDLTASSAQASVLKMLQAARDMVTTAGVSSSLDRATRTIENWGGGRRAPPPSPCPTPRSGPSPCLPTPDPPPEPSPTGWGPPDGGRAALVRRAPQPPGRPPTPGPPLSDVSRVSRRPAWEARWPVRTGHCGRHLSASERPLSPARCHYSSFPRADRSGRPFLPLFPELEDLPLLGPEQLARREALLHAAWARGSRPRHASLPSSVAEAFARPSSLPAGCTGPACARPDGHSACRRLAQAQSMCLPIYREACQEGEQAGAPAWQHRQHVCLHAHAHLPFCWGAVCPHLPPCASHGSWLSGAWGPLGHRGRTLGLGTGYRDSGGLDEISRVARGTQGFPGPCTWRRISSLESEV

Q: Which “Oocyte 2EVC NR2C PAM: Concentration Required for Current Doubling” value [1, 14] does the source give for `CC1(F)CN(C(=O)Cn2cnc3c(c(-c4ccc(F)c(Cl)c4)cn3C3CC3)c2=O)C1` [Compound 1, 5-(3-chloro-4-fluorophenyl)-7-cyclopropyl-3-(2-(3-fluoro-3-methylazetidin-1-yl)-2-oxoethyl)-3,7-dihydro-4H-pyrrolo[2,3-d]pyrimidin-4-one] here?
A: 120 nM

Q: And the “Oocyte 2EVC NR2C PAM: Avg Max % Potentiation” value [1, 15]?
A: 1800%

Q: And the EC50 ([1]; oocytes expressing hNR2C, 10 μM glutamate and 10 μM glycine)?
A: 1200 nM

Q: And the “Oocyte 2EVC NR2D PAM: Concentration Required for Current Doubling” value [2, 14]?
A: 165 nM

Q: And the “Oocyte 2EVC NR2D PAM: Avg Max % Potentiation” value [2, 15]?
A: 1700%

Q: And the EC50 [3]?
A: 1890 nM

Q: What about the EC50 [4] of the same compound?
A: 446 nM

Q: What about the “Oocyte 2EVC NR2B PAM: Concentration Required for Current Doubling” value ([5]; 5 μM glutamate and 3 μM glycine) of the same compound?
A: 160 nM

Q: What about the “Oocyte 2EVC NR2B PAM: Avg Max % Potentiation” value [5, 15] of the same compound?
A: 478%

Q: What about the solubility [6] of the same compound?
A: 29 µM (≈ 12.6 µg/mL)

Q: What about the “efflux in the MDCK efflux assay (in words)” value ([7]; MDCK) of the same compound?
A: not subject to efflux

Q: What about the “membrane penetration (in words)” value ([7]; MDCK) of the same compound?
A: penetrates membranes well

Q: And the “A-B MDCK Permeability” value ([7]; apical-to-basolateral, MDR1-transfected MDCK cells)?
A: 32.3 10^−6 cm/sec

Q: What about the “B-A MDCK Permeability” value ([7]; basolateral-to-apical, MDR1-transfected MDCK cells) of the same compound?
A: 32.1 10^−6 cm/sec

Q: What about the Papp A→B ([8]; MDCK-MDR1, apical-to-basolateral) of the same compound?
A: 32 ×10⁻⁶ cm/s

Q: And the Papp B→A ([8]; MDCK-MDR1, basolateral-to-apical)?
A: 32 ×10⁻⁶ cm/s

Q: And the “stability in Human Liver Microsomes (in words)” value [9]?
A: good stability

Q: And the “HLM % Metabolized after 30 min” value ([9]; human liver microsomes, 30 min)?
A: 34.3%

Q: What about the microsomal CLint ([9]; human liver microsomes, read-out: HLM mCLint) of the same compound?
A: 27.3 µL/min/mg

Q: And the half-life ([9]; human liver microsomes, read-out: HLM t1/2)?
A: 0.847 h

Q: And the “stability in Rat Liver Microsomes (in words)” value [10]?
A: excellent stability

Q: And the “Rat liver microsome (RLM) stability t1/2” value ([10]; Table 4)?
A: >2 h

Q: What about the “RLM t1/2” value ([10]; rat liver microsomes) of the same compound?
A: >2 h

Q: What about the “RLM % Metabolized after 30 min” value ([10]; rat liver microsomes, 30 min) of the same compound?
A: 1.83%

Q: What about the microsomal CLint ([10]; rat liver microsomes, read-out: RLM mCLint) of the same compound?
A: < 5 µL/min/mg

Q: What about the half-life ([10]; rat, liver microsomes, Table 4, read-out: Rat liver microsome (RLM) stability t1/2) of the same compound?
A: > 2 h

Q: What about the clearance [11] of the same compound?
A: 7.4 mL/min/kg

Q: And the “MMN after Compound 1 plus MK-801” value [12]?
A: prevented impairment of MMN by MK-801

Q: And the “reversal of PCP-induced deficit in novel object exploration time” value ([13]; 0.3 mg/kg)?
A: significantly reversed this deficit

Q: What about the “reversal of PCP-induced deficit in novel object exploration time” value ([13]; 1.0 mg/kg) of the same compound?
A: significantly reversed this deficit; also recorded: fully-reversed the PCP-induced deficit
